The results in this text go back to BindingDB's records for doi:10.1002/(SICI)1098-2396(199702)25:2 (University of Toronto, 1997).

This assay deals with D(2) dopamine receptor (Mus musculus, UniProt P61168).
Chain of D(2) dopamine receptor (P61168 whole entry): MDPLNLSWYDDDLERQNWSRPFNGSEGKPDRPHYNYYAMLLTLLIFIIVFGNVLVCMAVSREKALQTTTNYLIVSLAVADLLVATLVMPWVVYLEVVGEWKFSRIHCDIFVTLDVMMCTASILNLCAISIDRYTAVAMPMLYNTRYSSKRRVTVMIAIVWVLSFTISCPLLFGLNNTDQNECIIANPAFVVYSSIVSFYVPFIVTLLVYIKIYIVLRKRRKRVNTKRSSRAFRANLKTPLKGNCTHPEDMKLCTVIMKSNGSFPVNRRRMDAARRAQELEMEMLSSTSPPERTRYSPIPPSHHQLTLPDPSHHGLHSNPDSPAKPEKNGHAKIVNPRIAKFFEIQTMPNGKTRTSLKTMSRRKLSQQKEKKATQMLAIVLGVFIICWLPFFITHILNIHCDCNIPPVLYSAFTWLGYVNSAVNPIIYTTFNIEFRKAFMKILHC

What is called Ki is the dissociation constant of the complex between target and ligand, obtained from inhibition or displacement. Low readings indicate tighter binding, high ones weaker binding. `CCN1CCC[C@@H]1CNC(=O)c1cc(S(N)(=O)=O)ccc1OC` [Sulpiride-R] displayed a Ki of 1060 nM.

As to `CCN1CCC[C@H]1CNC(=O)c1cc(S(N)(=O)=O)ccc1OC` [Sulpiride-S], the affinity corresponds to a Ki of 1470 nM.
